Measured values as given in PubChem BioAssay AID179 (DTP/NCI, 2004).
pEC50, pIC50: −log10 of the molar value. Activity calls are given as the source filed them.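 How the source made its calls: active means compounds giving half or more protection of infected cells from virus-caused growth loss, again on retest; inactive means the rest.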

Tested on: CEM cells HIV-1 protection, formazan growth assay
Assay: NCI AIDS Antiviral Assay
Settings: for pIC50: measured here: growth of uninfected CEM cells
Procedure, shortened: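 CEM (human) cells, HIV-1 infected vs uninfected, 5-point dosing, formazan growth read-out. Retest threshold 50% protection.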

SMILES | pEC50 | pIC50 | outcome
C=C1CC(COc2ccc3c(C)c(Cl)c(=O)oc3c2)(c2ccccc2)OC1=O (centres undefined) | < 3.70 | 6.44 | 
O=C1NC(=O)C(CCC(=O)c2cccc3ccccc23)C(=O)N1 | < 4.22 | < 4.22 | 
CSc1nc(C)c(CCCl)c(Cl)n1 |  |  | inactive
C(COC1CC2CC1C1CC3OC3C21)OCCOC1CC2CC1C1CC3OC3C21 (centres undefined) | < 3.70 | 4.11 | 
S=C1NC(/C=C/c2ccccc2)N2C(=S)NC(/C=C\c3ccccc3)N12 (centres undefined) |  |  | inactive
C/C(=N\NC(=S)NNC(=S)N(C)c1ccccc1)c1ccccn1 | < 4.28 | 6.37 | 
C=CCCOC(=O)CO[N+](=O)[O-] |  |  | inactive
CCOC(=O)/C(=C/c1ccc(F)cc1)C(=O)c1ccccc1 | < 4.76 | < 4.76 | 
CC1=N/C(=C\c2cccs2)C(=O)O1 | < 3.70 | < 3.70 | 
CCC(=O)O[C@@H]1C2C(OC(C)=O)C34COC(C)([C@@H]3C3C(C[C@]3(C)OC(C)=O)[C@@H](OC(=O)c3ccccc3)C4=O)[C@H](OC(C)=O)[C@@]2(OC(C)=O)C[C@@H]1C (some centres undefined) | < 5.00 | < 5.00 | 
O=C(CC(c1ccccc1)C(C(=O)c1ccncc1)C(CC(=O)c1ccncc1)c1ccccc1)c1ccncc1 (centres undefined) | < 3.70 | < 3.70 | 
O=S(O)CCCSSCCCCSSCCCS(=O)O |  |  | inactive
CCOC(=O)c1c(-c2ccc(Br)cc2)ccn1C | < 3.70 | 4.13 | 
CCC/C(Cl)=N/OC(=O)Nc1cc(C(F)(F)F)ccc1OC | < 3.70 | 5.47 | 
CCOC(=O)C1C(c2ccccc2)C2(C#N)C(=N)OC1(C)C2(C#N)C#N (centres undefined) | < 3.70 | 4.54 | 
COC(=O)C1CCC(=O)N1CN(C(C)=O)c1ccccc1 (centres undefined) | < 3.70 | < 3.70 | 
C[C@@]12c3ccc4c(c3C(=O)c3occ(c31)[C@@H](O)C[C@H]2O)CCC4=O | < 3.70 | 4.76 | 
CC1(C)CCCCCCC2OC2CCCCCC(C)(C)C1=O (centres undefined) | < 3.70 | 4.42 | 
COC1CC(n2cnc3c(N)ncnc32)OC1CO (centres undefined) | < 3.70 | < 3.70 | 
O=C(Nc1ccc(/C=C\c2ccc(NC(=O)c3cc(S(=O)(=O)O)ccc3O)cc2S(=O)(=O)O)c(S(=O)(=O)O)c1)c1cc(S(=O)(=O)O)ccc1O | 4.15 | < 4.00 | 

SMILES | pEC50 | pIC50 | outcome
C(=C/c1ccc2nc(-c3ccc(/C=C/C=N/NC4=NCCCN4)cc3)cn2c1)/C=N/NC1=NCCCN1 | < 4.00 | 4.78 | 
NNC(=O)CSc1nc2ccccc2c(=O)n1N | < 3.70 | < 3.70 | 
CCCCCCCCCCCCCC(=O)OCC(CCS(=O)(=O)O[C@H]1CC[C@@]2(C)C(=CC[C@@H]3C2CC[C@]2(C)C(=O)CCC32)C1)OC(=O)CCCCCCCCCCCCC (some centres undefined) | 4.40 | < 4.00 | 
Clc1cc2ncn(C3CCCCO3)c2cc1Cl (centres undefined) | < 3.70 | 4.34 | 
CCCCCCCCN(/N=C/c1c2c(O)c3c(O)c(C)c4c(c3c1O)C(=O)C(C)(O/C=C\C(OC)C(C)C(OC(C)=O)C(C)C(O)C(C)C(O)C(C)/C=C/C=C(C)C(=O)N2)O4)C12CC3CC(CC(C3)C1)C2 (centres undefined) | < 3.70 | 5.05 | 
CC1CC/C(=C\c2ccc(F)cc2)C2=C1C(c1ccc(F)cc1)N1C(=O)CSC1=N2 (centres undefined) | < 3.70 | 4.12 | 
COc1cc2cc3cc(-c4ccc(Cl)cc4)c(N4CCN(C)CC4)nc3nc2cc1OC | < 4.40 | 5.18 | 
O=C(Nc1nc(-c2ccccc2)cs1)OCC(Cl)(Cl)Cl | < 3.70 | 5.35 | 
CC1CC(c2ccc([N+](=O)[O-])cc2)=Nc2ccccc2S1=O (centres undefined) | < 4.92 | < 4.92 | 
COc1cc[c]([Sb]([Br])([CH]=C(C)C)([CH]=C(C)C)[CH]=C(C)C)cc1 | < 3.42 | 5.52 | 
CCCCCC(CO)C(O)(C(F)(F)F)C(F)(F)F (centres undefined) | < 3.70 | 4.15 | 
CC(=O)C(CN1CCOCC1)C(c1ccccc1)c1c(O)c2ccccc2oc1=O (centres undefined) | < 4.05 | 4.26 | 
COc1c(Br)cc(Br)c(OC)c1-c1ccc[nH]1 | < 4.42 | < 4.42 | 
COC(=O)c1cc(C(=CCCCC=O)c2cc(Cl)c(OC)c(C(=O)OC)c2)cc(Cl)c1OC | < 3.70 | 4.94 | 
OCC(O)C1[O][Sb][O]C1C(O)CO (centres undefined) | < 3.70 | < 3.70 | 
C/C(CN1C(=O)c2ccccc2C1=O)=N\NS(=O)(=O)c1ccc2ccccc2c1 | < 3.35 | < 3.35 | 
Cc1c(Cl)ccc2c(=O)c3cccc(CC(=O)O)c3oc12 | < 3.70 | 4.10 | 
CC(C)(c1ccccc1)c1ccc(Oc2ccc(C#N)c(C#N)c2)cc1 | < 4.53 | 4.54 | 
COc1cc2c3c(c1OC)-c1ccccc1C(C(O)c1ccccc1)C3N(C)CC2 (centres undefined) |  |  | inactive
CCC[CH2][Sn]([CH2]CCC)([O]C(=O)c1cc(F)ccc1F)[O][Sn]([CH2]CCC)([CH2]CCC)[O]C(=O)c1cc(F)ccc1F | < 5.04 | 5.76 | 

SMILES | pEC50 | pIC50 | outcome
c1ccc2c3c([nH]c2c1)C1(CCCCC1)c1c([nH]c2ccccc12)C31CCCCC1 | < 5.16 | < 5.16 | 
CCOC(=O)c1nnsc1NC(=O)NCCCCCCn1c(=O)n(CCCCCCNC(=O)Nc2snnc2C(=O)OCC)c(=O)n(CCCCCCNC(=O)Nc2snnc2C(=O)OCC)c1=O | < 3.70 | < 3.70 | 
CCCCC(C#N)C(=O)NC(N)=O (centres undefined) | < 4.40 | < 4.40 | 
O=P1(O)c2ccccc2Oc2ccccc21 | < 3.70 | < 3.70 | 
O=c1cc(N=Nc2ccc(Cl)c(Cl)c2)[nH]c(=O)[nH]1 | < 5.70 | 5.81 | 
CN(C)NC(=S)NC12CC3CC(CC(C3)C1)C2 |  |  | inactive
Nn1c(=O)n2n(c1=O)C1CCC2C1 | < 3.70 | < 3.70 | 
COCCCNC1=C(C#N)C(=O)NC(c2cccc([N+](=O)[O-])c2)S1 (centres undefined) | < 3.57 | 4.40 | 
O=C(O)C1CC2(CCC1c1ccccc1)SCCS2 (centres undefined) | < 3.35 | < 3.35 | 
CC(=O)[CH-]C(C)=O.CC(=O)[CH-]C(C)=O.CCCNCCN.[Cr+5].[O-][Cl+3]([O-])([O-])[O-] | < 3.70 | < 3.70 | 
O=C(Nc1ccccc1)c1cc2ccccc2oc1=O | < 4.00 | < 4.00 | 
O=C1C(O)=C(c2ccccc2)C(=O)C(O)=C1c1ccccc1 | < 4.07 | 4.36 | 
COC1(c2ccc(C)cc2C)OC(=O)c2c(C)cccc21 (centres undefined) |  |  | inactive
CCOC(=O)c1ccc(N=C2C(=S)N(c3ccc(C(=O)OCC)cc3)C(=N)N2/N=C/c2ccccc2)cc1 | < 3.70 | 5.49 | 
COC(=O)C(CC1=C(O)Nc2ccccc2N1)/C(=N/NC(N)=O)C(=O)Nc1ccccc1C (centres undefined) |  |  | inactive
CCOC(=O)CC1C(C(=O)OCC)=Cn2c([nH]c3cccc4cccc2c43)=C1C(=O)OCC (centres undefined) | < 3.70 | 4.51 | 
c1ccc([P+](CCSCCSCC[P+](c2ccccc2)(c2ccccc2)c2ccccc2)(c2ccccc2)c2ccccc2)cc1 | < 3.47 | 4.21 | 
CCC(C)C(=O)O[C@H]1[C@H](OC(C)=O)[C@H](OC(C)=O)[C@@]2(COC(C)=O)C(OC(C)=O)C(=O)[C@@H]3[C@@H](OC(C)=O)[C@]2(O[C@@]3(C)COC(=O)c2ccccc2)[C@@]1(C)O (some centres undefined) |  |  | inactive
Cc1sc2nc3n(c(=O)c2c1C)N=C(c1ccccc1)CS3 | < 3.70 | < 3.70 | 
